PMC7181047, “Flame-Made Calcium Phosphate Nanoparticles with High Drug Loading for Delivery of Biologics” (Molecules, 2020)

Experiments:
[1] = target: T1, Proteinase K (Parengyodontium album, UniProt P06873); assay: Proteinase K degradation assay (SDS-PAGE); type: in vitro ADME; conditions: 0.5 µg LL-37, 20 ng Proteinase K, 20 mM Tris-HCl pH 8.0, 37 °C, up to 240 min, at least three repetitions
T1 construct: purchased Qiagen, Hilden, Germany
Description: A total of 0.5 µg LL-37, either loaded on nanoparticles or not, was subjected to Proteinase K degradation assay. Input samples were taken without Proteinase K added, as a positive control and is considered to be “100%” when calculating protein amounts. LL-37 was incubated in 20 mM Tris-HCl, pH 8.0 with a total of 20 ng Proteinase K (Qiagen, Hilden, Germany) added to the reaction. Samples were incubated at 37 °C until given timepoints where the reaction was stopped by the addition of SDS loading buffer (at a final concentration of 50 mM Tris-HCl pH 6.8, 2% SDS, 10% glycerol, 1% β-mercaptoethanol, 12.5 mM EDTA and 0.02% Bromophenol blue) and samples were then immediately boiled for 10 min at 98 °C.
Samples were loaded onto a NuPAGE 4%–12% Bis-Tris gel (Invitrogen, Carlsbad, CA, USA) and run in MES-buffer (Invitrogen) at 40 mA/gel. Since LL-37 is a small peptide, samples were run only halfway through the gel. The gels where then washed in Mill-Q water 3 times, 10 min before immersion in Imperial Protein Stain (Thermo Scientific) for 1 h. After that Mill-Q water was used to destain the gels before image acquisition on GelDoc XRS+ (Bio-Rad, Hercules, CA, USA). Bands were quantified using Image Studio Lite v. 5.2 (LI-COR Biosciences, Lincoln, NE, USA).

[2] = target: T1, Proteinase K; design: method as in PMID 10417311; conditions: after 2 h; cited from earlier work
Description: In order to assess the enzymatic degradation of LL-37 and the protective potential from the CaPS nanocarriers, a degradation assay utilizing Proteinase K was performed (Sodium Dodecyl Sulfate–Polyacrylamide Gel Electrophoresis, SDS-PAGE).

T1 sequence (P06873 106-384): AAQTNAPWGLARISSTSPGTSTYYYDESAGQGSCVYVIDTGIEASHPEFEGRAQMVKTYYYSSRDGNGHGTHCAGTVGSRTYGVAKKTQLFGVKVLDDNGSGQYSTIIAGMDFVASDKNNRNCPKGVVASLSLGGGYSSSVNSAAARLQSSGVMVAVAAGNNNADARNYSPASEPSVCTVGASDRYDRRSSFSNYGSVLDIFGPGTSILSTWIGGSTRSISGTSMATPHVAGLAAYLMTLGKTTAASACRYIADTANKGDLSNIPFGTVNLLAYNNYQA

In the case of `CC[C@H](C)[C@H](NC(=O)[C@H](CCCCN)NC(=O)[C@H](CCC(=O)O)NC(=O)[C@H](CCCCN)NC(=O)[C@H](CO)NC(=O)[C@H](CCCCN)NC(=O)[C@H](CCCNC(=N)N)NC(=O)[C@H](Cc1ccccc1)NC(=O)[C@H](Cc1ccccc1)NC(=O)[C@H](CC(=O)O)NC(=O)CNC(=O)[C@H](CC(C)C)NC(=O)[C@@H](N)CC(C)C)C(=O)NCC(=O)N[C@@H](CCCCN)C(=O)N[C@@H](CCC(=O)O)C(=O)N[C@@H](Cc1ccccc1)C(=O)N[C@@H](CCCCN)C(=O)N[C@@H](CCCNC(=N)N)C(=O)N[C@H](C(=O)N[C@H](C(=O)N[C@@H](CCC(N)=O)C(=O)N[C@@H](CCCNC(=N)N)C(=O)N[C@H](C(=O)N[C@@H](CCCCN)C(=O)N[C@@H](CC(=O)O)C(=O)N[C@@H](Cc1ccccc1)C(=O)N[C@@H](CC(C)C)C(=O)N[C@@H](CCCNC(=N)N)C(=O)N[C@@H](CC(N)=O)C(=O)N[C@@H](CC(C)C)C(=O)N[C@H](C(=O)N1CCC[C@H]1C(=O)N[C@@H](CCCNC(=N)N)C(=O)N[C@H](C(=O)N[C@@H](CCC(=O)O)C(=O)N[C@@H](CO)C(=O)O)[C@@H](C)O)C(C)C)[C@@H](C)CC)C(C)C)[C@@H](C)CC` [LL-37], the “incubation time after which the LL-37 band (4.5 kDa) starts fading” value [1] is listed as 20 min and the uncleaved peptide [2] is listed as ~ 5%.
